# From patent publication US20030198617A1, “Pharmaceutical tryptophan containing dipeptide compositions and methods of use thereof” (priority 1993, published 2003)
# Marks after values point to notes of the source that are not given here.
# Legend:
# [1] = Chronic pyoderma (staphylococcal skin diseases), clinical and immunological testing
# Protocol: IM862 was used in the form of a 0.01% solution (100 μg of the preparation in one IV tube). The preparation was administered intranasally, daily, at 100 μg for a course of 5 days.
# The effectiveness of IM862 use was evaluated according to the subjective impression of the patient, clinical findings, body temperature, general clinical and immunological testing of the peripheral blood. Also, bacteriological investigation of the disease agents were conducted before and after treatment with IM862.
# IM862 was administered to 59 chronic pyoderma patients. […] The patients ranged in age from 18 to 56 years old. Thirty-two men and 27 women were studied. Duration of illness was from 5 months to 16 years.
# For determining the norm of T- and B-system immunity and non-specific resistance, 175 healthy donors (men & women), aged 18 to 50 years, were examined. Lymphocytes were extracted from the heparinized (25 U/ml) peripheral blood of healthy and ill persons in a ficoll-urotrast density gradient. T-lymphocytes were identified by spontaneous rosette-formation with ram erythrocytes. The T-lymphocyte subpopulations were determined with the aid of mouse monoclonal antibodies, OKT4 and OKT8, as well as with the aid of a theophylline resistance test. B-lymphocytes were determined by rosette-formation with mouse erythrocytes. The B-lymphocyte subpopulations were determined according to the presence of various classes of immunoglobulins (Ig+, IgM^+, IgG^+, IgA^+) on their surfaces with the aid of monospecific antibodies. In serum, the content of the immunoglobulins M, G, & A, and the C3-component of complement was determined by using monospecific sera to human immunoglobulins with the radial immunodiffusion method. The percentage of migration inhibition in a LMIR with PHA and ConA was determined using the hemolytic staphylococcus allergen (HSA). The phagocytic activity of the neutrophils (percent and absolute quantity of phagocytic polymorphonuclear leukocytes) and the phagocytic index (mean quantity of microorganisms absorbed by a single phagocyte) were studied with the use of a museum culture of the “Oxford 209P” strain. Other analyzed parameters were the cationic protein content (MCC) in the neutrophils, the serum immune complexes (CIC), the natural killer activity (CI) by the 3H-uridine test, and the quantity of neutrophils forming rosettes with sheep erythrocytes.
# [2] = system: Candida albicans; experiment: Candida albicans intraperitoneal infection in guinea pigs; format: in vivo
# From the text: Two groups of guinea pigs were inoculated with Candida albicans by intraperitoneal injection. […] The other group was not treated.
# Animals were sacrificed at day 5 and day 10. The peritoneal cavities were examined for signs of inflammation. These signs included number of infectious foci adherent to the omentum, exudate, fibrin deposition, quantitative fungal cultures, and the number of neutrophils, macrophages, and lymphocytes infiltrating the peritoneum.
# [3] = system: Mycobacterium tuberculosis
# [4] = Immunity and non-specific resistance indices in breast cancer patients after radiotherapy; format: in vivo, human; conditions: after IM862 use
# [5] = Abscessing and indurative comedones
# [6] = after IM862, phagocytosis with staph. cells
# [7] = after treatment with IM862 (Table 21)
# [8] = following two months of treatment, with chemotherapy
substance,measurement,setting,value
Glu-Trp [IM862],"Considerable Improvement, number of patients",[1]; [5],1
same,"Recovery, number of patients",[1]; [5],4
same,"improvement, number of patients",[1]; [5],1
same,"Considerable Improvement, number of patients",[1]; Chronic abscessing pyoderma,2
same,"Recovery, number of patients",[1]; Chronic abscessing pyoderma,5
same,"Recovery, number of patients",[1]; Chronic furunculosis,10
same,"Recovery, number of patients",[1]; Chronic recurring folliculitis-deep,1
same,"Recovery, number of patients",[1]; Chronic recurring osteofolliculitis,3
same,"Considerable Improvement, number of patients",[1]; Chronic ulcerative pyoderma,2
same,"Considerable Improvement, number of patients",[1]; Papulous-pustulous comedones,3
same,"Recovery, number of patients",[1]; Papulous-pustulous comedones,4
same,"Considerable Improvement, number of patients",[1]; Total number of patients,8
same,"improvement, number of patients",[1]; Total number of patients,1
same,"Recovery, number of patients",[1]; Total number of patients (36 resistant to standard therapy),27
same,CIC units,[1]; after IM862,45.9 ± 4.9 units
same,Cathion proteins MCC × 10^9/l,[1]; after IM862,1.46 ± 0.05^y
same,Etr-RFC/Ets-RFC,[1]; after IM862,5.32 ± 1.00
same,LMIF with ConA %,[1]; after IM862,58.3 ± 3.9^yy %
same,LMIF with HSA %,[1]; after IM862,84.9 ± 5.5^yy %
same,LMIF with PHA %,[1]; after IM862,40.2 ± 3.9^y %
same,Lymphocytes %,[1]; after IM862,30.8 ± 1.4%
same,Lymphocytes ×10^9/l,[1]; after IM862,2.41 ± 0.14 ×10^9/l
same,Monocytes × 10^9/l,[1]; after IM862,0.43 ± 0.04 × 10^9/l
same,NK-activity (CI) %,[1]; after IM862,45.18 ± 2.55^y %
same,Neutrophils En-RFC %,[1]; after IM862,14.7 ± 1.6%
same,Neutrophils En-RFC × 10^9/l,[1]; after IM862,0.7 ± 0.11 × 10^9/l
same,Neutrophils × 10^9/l,[1]; after IM862,4.54 ± 0.25 × 10^9/l
same,Phagocytic index % × 10^9/l,[1]; after IM862,5.31 ± 0.20^y
same,T4/T8,[1]; after IM862,1.32 ± 011^y^
same,T-helpers Etr-RFC %,[1]; after IM862,51.7 ± 2.8^y %
same,T-helpers Etr-RFC ×10^9/l,[1]; after IM862,1.28 ± 0.09^y ×10^9/l
same,T-helpers OKT4^+ %,[1]; after IM862,20.3 ± 2.9%
same,T-helpers OKT4^+ ×10^9/l,[1]; after IM862,0.46 ± 0.05^y ×10^9/l
same,T-lymphocytes E-RFC %,[1]; after IM862,69.3 ± 1.9^y %
same,T-lymphocytes E-RFC ×10^9/l,[1]; after IM862,1.68 ± 0.12^y ×10^9/l
same,T-suppressors Etr-RFC %,[1]; after IM862,17.9 ± 2.4%
same,T-suppressors Etr-RFC ×10^9/l,[1]; after IM862,0.45 ± 0.08 ×10^9/l
same,T-suppressors OKT8 %,[1]; after IM862,17.1 ± 1.9%
same,T-suppressors OKT8 ×10^9/l,[1]; after IM862,0.39 ± 0.04 ×10^9/l
same,Leukocytes ×10^9/l,[1]; after IM862 (Table 22),7.75 ± 0.33 ×10^9/l
same,Monocytes %,[1]; after IM862 (Table 24),5.65 ± 0.40%
same,Neutrophils %,[1]; after IM862 (Table 24),59.8 ± 1.6%
same,Phagocytic activity* %,[1]; [6],48.9 ± 2.8%
same,Phagocytic activity* × 10^9/l,[1]; [6],2.36 ± 0.27 × 10^9/l
same,B-lymphocytes (IgA^+) %,[1]; after treatment with IM862,2.4 ± 0.3%
same,B-lymphocytes (IgA^+) ×10^9/l,[1]; after treatment with IM862,0.06 ± 0.008 ×10^9/l
same,B-lymphocytes (IgG^+) %,[1]; after treatment with IM862,14.7 ± 2.16%
same,B-lymphocytes (IgG^+) ×10^9/l,[1]; after treatment with IM862,0.19 ± 0.023^y ×10^9/l
same,B-lymphocytes (IgM^+) %,[1]; after treatment with IM862,4.4 ± 0.6%
same,B-lymphocytes (IgM^+) ×10^9/l,[1]; after treatment with IM862,0.10 ± 0.01 ×10^9/l
same,B-lymphocytes (Ig^+) %,[1]; after treatment with IM862,16.9 ± 1.7%
same,B-lymphocytes (Ig^+) ×10^9/l,[1]; after treatment with IM862,0.34 ± 0.05 ×10^9/l
same,B-lymphocytes Em-RFC %,[1]; after treatment with IM862,12.1 ± 1.5%
same,B-lymphocytes Em-RFC ×10^9/l,[1]; after treatment with IM862,0.28 ± 0.04 ×10^9/l
same,Bacilli/nuclei %,[1]; after treatment with IM862,3.8 ± 0.6%
same,Basophils %,[1]; after treatment with IM862,0.1 ± 0.1%
same,Body temperature (morning),[1]; after treatment with IM862,36.2 ± 0.1
same,"ESP, mm/hr",[1]; after treatment with IM862,11.2 ± 1.4 mm/hr
same,Erythrocytes ×10^12/l,[1]; after treatment with IM862,5.2 ± 0.6 ×10^12/l
same,IgA,[1]; after treatment with IM862,2.40 ± 0.18 g/L
same,IgG,[1]; after treatment with IM862,15.5 ± 0.73 g/L
same,IgM,[1]; after treatment with IM862,1.25 ± 0.12 g/L
same,Segm./nuclei %,[1]; after treatment with IM862,61.9 ± 1.4%
same,Leukocytes ×10^9/l,[1]; [7],7.75 ± 0.36 ×10^9/l
same,Monocytes %,[1]; [7],5.7 ± 0.4%
same,Neutrophils %,[1]; [7],59.8 ± 1.6%
same,side effects / tolerance,"[1]; intranasally 100 μg daily, 5 days",No side effects from its use were noted in any of the patients
same,"relapses, number of patients",[1]; observation for 6 months after discharge,3 patients
same,inflammatory changes in the omentum,[2]; after 5 days,did not principally differ between the groups
same,quantitative fungal cultures,[2]; after 10 days,fewer fungi in the treated animals
same,inflammatory changes in the omentum,"[2]; after 10 days, 1 μg/kg per day i.p. for four days",less pronounced than in untreated animals
same,effect on immunological indices,[3]; after 2 months of observation,normalizing effect
same,"positive changes in the lungs, cases out of 37",[3]; after 4-6 months of in-hospital treatment,35 cases
same,"improvement, number of patients",[3]; [8],27
same,"significant improvement, number of patients",[3]; [8],9
same,B-lymphocyte (Ig^+) (×10^9/l),[4],0.17 ± 0.02 ×10^9/l
same,C3-complement,[4],0.68 ± 0.04 g/L
same,Cation,[4],1.49 ± 0.12
same,"LMI with ConA, %",[4],71 ± 5 %
same,Lymphocytes ×10^9/l,[4],1.72 ± 0.21 ×10^9/l
same,OKT4^+/OKT8^+,[4],1.86 ± 0.17
same,Phagocytic index,[4],3.7 ± 0.2
same,T-helpers (OKT4^+),[4],0.39 ± 0.04
same,T-lymphocytes (×10^9/l),[4],0.92 ± 0.12 ×10^9/l
same,T-suppressors (OKT8^+) (×10^9/l),[4],0.21 ± 0.03 ×10^9/l
same,“Active” T-lymphocytes (×10^9/l),[4],0.52 ± 0.07 ×10^9/l
same,DSH to tuberculin (mm),[4]; delayed-skin hypersensitivity,8.7 ± 0.6 mm
same,SI to IM862,[4]; sensitivity index,1.27 ± 0.14
